# Measurements from US20230381343A1, “Treatment for Intraocular Pressure Related Disorders” (Mayo Foundation for Medical Education and Research, priority 2021, published 2023).
# Experiments:
# [1] = test system: wild-type C57BL/6J mice; test: Steroid-induced (dexamethasone) ocular hypertension model, topical treatment; format: in vivo, mouse
# Excerpt: All studies were approved by the Mayo Clinic (Rochester, MN) IACUC and adhered to ARVO guidelines. […] In the final phase of the experiment (experimental weeks 7-9, treatment weeks 4-6), dexamethasone-injected animals in Group 2 continued to receive topical STC-1 while treatment was halted in the vehicle-injected fellow eye for a medication wash-out period (FIG. 22). For statistical purposes, the final week of each condition was selected (i.e. weeks 3, 6, and 9) for analysis. To determine if a difference in IOP was present among groups at week 6 and 9, a Kruskal-Wallis test was performed. An unpaired t-test was used to directly compare the two groups. Values for all statistical tests were considered significant at P<0.05.
# For both models histologic analysis was performed.
# [2] = one eye, IOP 33 mmHg at 12 months after plaque
# Excerpt: Records were reviewed for patient demographics, clinical tumor features, treatment parameters, and outcomes, with attention to IOP and optic disc features.
# [3] = test system: mouse model of experimental autoimmune uveitis; test: Experimental autoimmune uveitis (EAU), topical treatment; format: in vivo; conditions: daily topical
# Method: Following induction of experimental autoimmune uveitis (EAU), mice were treated daily with topical latanoprost free acid (LFA; 100 μM) or STC-1 (0.5 μg/mL) in one eye and vehicle in the other eye. At day 18, OCT was performed and retinal thickness was measured in a masked manner. At day 21, eyes were enucleated and processed for hematoxylin and eosin (H&E) staining.
# Experimental autoimmune uveitis (EAU) was induced in the C57B/6 mouse with a protocol described elsewhere (see, e.g., Avichezer et al., Invest. Ophthalmol. Vis. Sci., 41(1):127-31 (2004)). Briefly, human interphotoreceptor retinoid binding protein (IRBP) in complete Freund's adjuvant was injected subcutaneously and pertussis toxin was injected intraperitoneally as an additional immune stimulus.
# [4] = test system: C57BL/6J mice; test: Aqueous outflow parameters by constant flow infusion; format: in vivo, mouse; conditions: 6 weeks post intracameral injection, treatment day 5 for topical
# Excerpt: To determine the effects of ssAAV2-smCBA-STC-1-FLAG on parameters of aqueous outflow, 3-month old C57BL/6J mice were separately treated with the following: 1) intracameral ssAAV2-smCB A-STC-1-FLAG (n=5), 2) intracameral ssAAV2-smCBA-GFP (n=5), 3) topical recombinant human STC-1 (n=4; Biovender Research and Diagnostic Products, Czech Republic) (Roddy et al., Invest Ophthalmol Vis Sci. 58:2715-24(2017); Roddy et al., PLoS ONE. 15(2020)), 4) topical latanoprost free acid (LFA; n=5; Cayman Chemical, Ann Arbor, MI), or 5) untreated mice (n=4). Mice that received topical treatments were treated with once daily topical doses of STC-1 (5 μl of 0.5 μg/μl) or LFA (10^-4 M) for 5 days prior to aqueous outflow experiments. Mice that received intracameral injections were treated 6 weeks prior to aqueous outflow measurements. Aqueous outflow was assessed using the protocols previously established (Millar et al., Invest Ophthalmol Vis Sci. 52:685-94(2011); Roy Chowdhury et al., Invest Ophthalmol Vis Sci. 58:5731-42(2017)). Briefly, a 33-g needle was used to cannulate the anterior chamber of anesthetized mice. The needle was connected to a flow-through pressure transducer (World Precision Instruments, Sarasota, FL) that was also connected to an SP101i microdialysis infusion pump (World Precision Instruments) and an open-ended, variable-height, raised reservoir manometer. Episcleral venous pressure was obtained by visualizing the reflux of blood into Schlemm's canal by direct ophthalmoscopy as the reservoir was lowered. Outflow facility was determined by slowly increasing the flow rate with the infusion pump and recording the pressure. Uveoscleral outflow was calculated when the inflow is presumed to be zero immediately after animal sacrifice. Aqueous humor formation was then estimated by using the modified Goldmann equation, i.e. aqueous formation rate=[outflow facility X (IOP−episcleral venous pressure)]+uveoscleral outflow as previously described (Millar et al., Invest Ophthalmol Vis Sci. 52:685-94(2011)). To validate the calculated IOP values based on the Goldman equation, IOP was also assessed with a handheld rebound tonometer. All data were recorded and analyzed using LabScribe software (World Precision Instruments).
compound,measurement,setting,value
"CC(=O)OCC(=O)[C@@]1(O)[C@H](C)C[C@H]2[C@@H]3CCC4=CC(=O)C=C[C@]4(C)[C@@]3(F)[C@@H](O)C[C@@]21C [dexamethasone, dexamethasone acetate]",IOP,"[1]; PBS-treated dexamethasone-injected eyes, week 6, n=8",19.5±1.7 mmHg
same,IOP,"[1]; PBS-treated dexamethasone-injected eyes, week 9, n=8",19.7±1.3 mmHg
same,Increase in IOP vs vehicle-injected eyes,"[1]; after 3 weekly conjunctival fornix injections, n=18",18%
same,IOP,"[1]; dexamethasone-injected eyes, week 3, n=18",19.7±1.8 mmHg
same,IOP change vs PBS-treated vehicle-injected eyes,"[1]; week 6, n=8",25%
dorzolamide hydrochloride-timolol maleate,Response of IOP spike to topical therapy,[2],responded
"O=C(O)CCC/C=C\C[C@@H]1[C@@H](CC[C@@H](O)CCc2ccccc2)[C@H](O)C[C@@H]1O [LFA, latanoprost free acid]",Retinal thickness by OCT vs vehicle control eye,[3]; day 18,no significant difference in retinal thickness
same,Vitreous inflammatory cells (H&E),[3]; day 21,trend toward greater vitreous cell
same,Episcleral venous pressure,[4],10.0 ± 2.4 mmHg
same,Outflow facility,[4],0.046 ± 0.02 μL/min/mmHg
same,Uveoscleral outflow,[4],0.046 ± 0.02 µL/min
same,Calculated IOP,[4]; Goldmann equation,14.0 ± 1.9 mmHg
same,Measured IOP,[4]; rebound tonometer,13.2 ± 0.9 mmHg
